In test [1] the test system is IR. In words: IR activity (agonist/antagonist) of MBP-peptide fusions, Table 10; test not named. The conditions noted are these: MBP-peptide fusion proteins; one symbol per monomer unit.
The subject of a further test is MiaPaCa cells. The conditions noted are these: MiaPaCa.
In test [2] the target is His-tagged soluble recombinant human IGF-IR (srhIGF-1R-his) (Homo sapiens, UniProt P08069). In words: ALPHAScreen competition, b-hIGF-1 binding to srhIGF-1R-his. Particulars: read-out: Affin.; AlphaScreen assay versus IGF-1.
Chain of His-tagged soluble recombinant human IGF-IR (srhIGF-1R-his) (P08069 31-736 limits assumed): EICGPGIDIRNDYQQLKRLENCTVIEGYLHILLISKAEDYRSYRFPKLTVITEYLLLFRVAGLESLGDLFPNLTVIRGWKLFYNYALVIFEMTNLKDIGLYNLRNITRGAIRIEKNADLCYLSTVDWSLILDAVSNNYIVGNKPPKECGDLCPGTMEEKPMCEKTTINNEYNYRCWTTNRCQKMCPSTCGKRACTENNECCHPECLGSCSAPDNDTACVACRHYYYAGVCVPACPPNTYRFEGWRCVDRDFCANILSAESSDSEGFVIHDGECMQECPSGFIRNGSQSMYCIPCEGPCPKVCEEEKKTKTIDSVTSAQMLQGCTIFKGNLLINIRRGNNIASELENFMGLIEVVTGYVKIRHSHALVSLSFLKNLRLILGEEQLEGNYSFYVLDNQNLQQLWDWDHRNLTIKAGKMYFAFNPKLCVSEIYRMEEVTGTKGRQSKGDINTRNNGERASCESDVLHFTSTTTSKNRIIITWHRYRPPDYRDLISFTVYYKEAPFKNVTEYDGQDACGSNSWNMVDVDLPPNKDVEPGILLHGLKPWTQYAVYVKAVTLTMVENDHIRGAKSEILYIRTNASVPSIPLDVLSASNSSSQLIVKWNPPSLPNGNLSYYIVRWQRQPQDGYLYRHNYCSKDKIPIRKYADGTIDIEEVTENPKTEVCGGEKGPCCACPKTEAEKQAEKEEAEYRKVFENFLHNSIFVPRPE
Chain of His-tagged soluble recombinant human IGF-IR (srhIGF-1R-his) (P08069 741-935 limits assumed): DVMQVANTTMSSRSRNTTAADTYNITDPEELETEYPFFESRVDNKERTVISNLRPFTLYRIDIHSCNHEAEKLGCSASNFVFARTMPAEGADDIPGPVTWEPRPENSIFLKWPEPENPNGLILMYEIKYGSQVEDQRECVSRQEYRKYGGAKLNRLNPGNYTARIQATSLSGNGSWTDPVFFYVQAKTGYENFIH
Protocol: Detection of the receptor ligand interaction was measured in an amplified luminescent proximity homogeneous assay (ALPHAScreen; BioSignal-Packard, Montreal). The assay was performed in 384-well Nunc™white polystyrene microplates (Nalge Nunc International, Naperville, Ill.) with a final volume of 40 μl.
For the first step of the assay, hIGF-1 (PeproTech, Inc., Rocky Hill, N.J.), b-hIGF-1 (see below), and peptides were incubated for 2 h at room temperature. Each concentration of competitor was assayed in duplicate. Non-specific binding was determined in the presence of 3×10^−5 M hIGF-1. In the second step of the assay, acceptor beads were added and the incubation was continued for 0.5 h. In the final step, donor beads were added and the incubation was continued for an additional 1 h.
For these experiments, potencies of peptide competition were determined using the AlphaScreen assay format.
For test [3], the target named is IR (Homo sapiens, UniProt P06213). In words: IR-Kd. Also noted: replacing the transmembrane domain and the intracellular domain of IR with constant domains from immunoglobulin Fc or λ subunits; made in house; host or cells: human embryonic kidney 293 cells (Bass et al.). The text has this:
Table printed on a drawing sheet, FIG. 5B
The patent's description of the figure: FIG. 5A: Summary of specific representative amino acid sequences from Formulas 1, 4, 6, and 10 (SEQ ID NOS:1155-1180).
FIG. 5B: Summary of specific representative amino acid sequences from Formulas 1, 4, 6, and 10 (SEQ ID NOS:1181-1220).
First copying reader's note: The scan is skewed, so values in the right-hand columns sit slightly higher than their clone names, and their rows were assigned by following the ruled lines.
Where the first naming reader finds the target: head: IR-Kd

Test [4] addresses T1, insulin receptor construct transfected into 32D cells (Homo sapiens, UniProt P06213).
T1 construct: expressed in transfected cells; host or cells: 32D cells (clone 969)
In words: IR autophosphorylation assay in IR transfected 32D cells (ELISA). The class given is cell-based. Particulars: tested as MBP fusion peptides. On the procedure:
The IR transfected 32D cells were seeded at […] in 96-well tissue culture plates and incubated overnight at 37° C. […] The culture media was decanted from the cell culture plates, and the diluted samples were added to the cells. The plates were incubated at 37° C. for 30 min. The stimulation medium was decanted from the plates, and cell lysis buffer (50 mM HEPES pH 7.2, 150 mM NaCl, 0.5% Triton X-100, 1 mM AEBSF, 10 KIU/ml aprotinin, 50 μM leupeptin, and 2 mM sodium orthovanadate) was added. The cells were lysed for 30 min.
In the ELISA portion of the assay, the cell lysates were added to the BSA-blocked anti-IR unit mAb (Upstate Biotechnology, Lake Placid, N.Y.) coated ELISA plates. After a 2 h incubation, the plates were washed 6 times with PBST and biotinylated anti-phosphotyrosine antibody (Upstate Biotechnology) is added. After another 2 h incubation, the plates were again washed 6 times. Streptavidin-Eu was then added, and the plates were incubated for 1 h. After washing the plates again, EG&G Wallac enhancement solution (100 mM acetone-potassium hydrogen pthalate, pH 3.2; 15 mM 2-naphtyltrifluoroacetate; 50 mM tri(n-octyl)-phosphine oxide; 0.1% Triton X-100) was added into each well, and the plates were placed onto a shaker for 20 min at RT.
On the technique in general: ELISA stands for enzyme-linked immunosorbent assay.

Test [5] addresses T2, soluble human insulin receptor-immunoglobulin heavy chain chimera (sIR-Fc) (Homo sapiens, UniProt P06213).
T2 construct: replacing the transmembrane domain and the intracellular domain of IR with constant domains from immunoglobulin Fc or λ subunits; made in house; host or cells: human embryonic kidney 293 cells (Bass et al.)
In words: TR-FRET competition with biotinylated RP9 (b-RP9) for sIR-Fc. The class given is binding. The conditions noted are these: Hill slope; target sIR-Fc; label b-RP9; TR-FRET.

In test [6] the target is T2, soluble human insulin receptor-immunoglobulin heavy chain chimera (sIR-Fc). In words: TR-FRET competition with biotinylated S175 (b-S175) for sIR-Fc. The format is binding. Particulars: Hill slope, target sIR-Fc, label b-S175. A general note: Time-resolved FRET reads energy transfer from a long-lived donor to a nearby acceptor.
Protocol: The TR-FRET assays were performed in a 384-well white microplate with a final volume of 30 μl.
For these figures, each data point represents the average of two replicate wells.
Test [7] has as its target T3, soluble HIR ectodomain (sIR) (Homo sapiens, UniProt P06213).
T3 construct: soluble HIR ectodomain (sIR); Kristensen et al., 1998
Kind of test: Fluorescence polarization, competition with FITC-RP9 for sIR. The format is binding. The conditions noted are these: Hill slope, target sIR, label FITC-RP9. (In general: Polarisation of emitted light reports the rotation of a fluorescent probe.)

The target of test [8] is T4, IGF-1R (Homo sapiens, UniProt P08069). In words: TR-FRET dissociation of biotinylated-20E2 from rhIGF-1R. The format is binding. Particulars: peptides 100 μM, IGF-1 30 μM. How it is done:
Best fit non-linear regression analysis of the data, was used to determine dissociation rate constants. Each data point represents a single observation. […] Reactions were allowed to reach equilibrium for 6 h at RT.

Test [9] concerns the target T2, soluble human insulin receptor-immunoglobulin heavy chain chimera (sIR-Fc). Kind of test: Fluorescence polarization, competition with FITC-RP9 for sIR-Fc. The class given is binding.
Protocol: (§1) For these experiments, each data point represents the average of two replicate wells.
The assays were performed in a 384-well black microplate (NUNC) with a final volume of 30 μl.
In test [10] the target is T4, IGF-1R. Kind of test: TR-FRET competition with biotinylated-20E2 for rhIGF-1R. Particulars: TR-FRET (rhIGF-1R, b-20E2) versus FP (sIR-Fc), summary of Table 22.
Protocol: as §1
The assays were performed using a 384-well white microplate (NUNC) with a final volume of 30 μl.
The test system of test [11] is free fat cells (adipocytes). Kind of test: Adipocyte / free fat cell (FFC) assay, 3H glucose incorporation into lipid. The conditions noted are these: free fat cell assay class, Table 9.
Protocol: Incorporation of ^3H into the lipid phase was determined by partitioning of lipid phase into a scintillant mixture, which excludes water-soluble ^3H products.
The next test deals with T5, Insulin receptor (Homo sapiens, UniProt P06213).
T5 construct: replacing the transmembrane domain and the intracellular domain of IR with constant domains from immunoglobulin Fc or λ subunits; made in house; host or cells: human embryonic kidney 293 cells (Bass et al.)
T5 sequence (P06213 28-758 limits assumed): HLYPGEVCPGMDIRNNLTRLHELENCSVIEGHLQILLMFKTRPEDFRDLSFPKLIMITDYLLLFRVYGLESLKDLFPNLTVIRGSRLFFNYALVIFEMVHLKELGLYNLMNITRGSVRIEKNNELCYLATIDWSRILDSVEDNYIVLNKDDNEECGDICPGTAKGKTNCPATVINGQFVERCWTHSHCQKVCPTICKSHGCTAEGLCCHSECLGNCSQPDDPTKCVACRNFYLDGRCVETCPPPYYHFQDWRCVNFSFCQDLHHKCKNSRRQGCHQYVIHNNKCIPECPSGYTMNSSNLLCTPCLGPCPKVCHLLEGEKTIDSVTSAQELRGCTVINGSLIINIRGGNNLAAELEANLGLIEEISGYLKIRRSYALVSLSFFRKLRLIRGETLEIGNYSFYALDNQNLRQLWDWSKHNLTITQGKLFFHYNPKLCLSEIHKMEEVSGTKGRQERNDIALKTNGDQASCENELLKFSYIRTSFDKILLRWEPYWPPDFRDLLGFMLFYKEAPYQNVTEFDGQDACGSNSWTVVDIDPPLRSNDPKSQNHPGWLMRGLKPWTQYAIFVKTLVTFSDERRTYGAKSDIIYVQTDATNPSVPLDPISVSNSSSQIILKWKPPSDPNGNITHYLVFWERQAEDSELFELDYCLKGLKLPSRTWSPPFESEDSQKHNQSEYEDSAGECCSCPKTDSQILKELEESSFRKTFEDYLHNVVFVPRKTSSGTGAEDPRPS
T5 sequence (P06213 763-956 limits assumed): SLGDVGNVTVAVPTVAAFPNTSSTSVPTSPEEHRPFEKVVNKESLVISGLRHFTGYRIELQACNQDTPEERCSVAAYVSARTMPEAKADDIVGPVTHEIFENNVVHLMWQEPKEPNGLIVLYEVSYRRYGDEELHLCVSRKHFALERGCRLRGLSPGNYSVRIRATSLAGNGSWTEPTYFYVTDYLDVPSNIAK
In words: BIAcore competition, IR binding to immobilized insulin. Particulars: Table 12; IR 450 nM pre-incubated with insulin […], A7 (20A4)-MBP 4.1 μM, D8-MBP […], D10-MBP 3.4 μM, 447-MBP 11.5 μM or MBP 13 μM; IR alone 220 RU. How it is done: Flowcell-1 was used for background binding to correct for any non-specific binding. […] The surface was regenerated with 25 mM NaOH.

No end group written: not given here.

T2 sequence (P06213 28-758 limits assumed, stated change not applied): as the sequence (P06213 28-758 limits assumed) above
T2 sequence (P06213 763-956 limits assumed, stated change not applied): as the sequence (P06213 763-956 limits assumed) above
T4 sequence (P08069 31-736 limits assumed): as the sequence (P08069 31-736 limits assumed) above
T4 sequence (P08069 741-935 limits assumed): as the sequence (P08069 741-935 limits assumed) above
T3 sequence (P06213 28-758 limits assumed): as the sequence (P06213 28-758 limits assumed) above
T3 sequence (P06213 763-956 limits assumed): as the sequence (P06213 763-956 limits assumed) above
Chain of IR (Homo sapiens, UniProt P06213) (P06213 28-758 limits assumed): as the sequence (P06213 28-758 limits assumed) above
Chain of IR (Homo sapiens, UniProt P06213) (P06213 763-1382 limits assumed): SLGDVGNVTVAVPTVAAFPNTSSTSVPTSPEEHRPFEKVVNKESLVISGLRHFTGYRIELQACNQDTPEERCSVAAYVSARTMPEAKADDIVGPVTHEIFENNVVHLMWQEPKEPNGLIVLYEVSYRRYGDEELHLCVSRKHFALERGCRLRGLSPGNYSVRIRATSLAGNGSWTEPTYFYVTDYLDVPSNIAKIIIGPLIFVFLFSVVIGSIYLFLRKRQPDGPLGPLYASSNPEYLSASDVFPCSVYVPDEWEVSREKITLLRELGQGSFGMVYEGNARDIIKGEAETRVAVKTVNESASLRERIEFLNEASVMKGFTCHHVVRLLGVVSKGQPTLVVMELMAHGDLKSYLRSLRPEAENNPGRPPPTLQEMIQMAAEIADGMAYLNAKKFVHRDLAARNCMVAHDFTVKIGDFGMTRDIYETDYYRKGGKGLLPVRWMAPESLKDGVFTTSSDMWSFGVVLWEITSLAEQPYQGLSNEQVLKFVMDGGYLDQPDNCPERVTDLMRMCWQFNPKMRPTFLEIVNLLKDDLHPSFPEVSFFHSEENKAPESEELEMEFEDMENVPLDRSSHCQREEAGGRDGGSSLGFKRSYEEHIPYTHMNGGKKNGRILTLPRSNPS
T1 sequence (P06213 28-758 limits assumed): as the sequence (P06213 28-758 limits assumed) above
T1 sequence (P06213 763-1382 limits assumed): as the sequence (P06213 763-1382 limits assumed) above

On to “437 (NNNNLGIEGRISEFIEGRAQPAMAFHENFYDWFVRQVSAAAGAPVPYPDPLEPRAA; also: MBP fusion, junction not given here) [Peptide 437]”, for which the “Act. (activity)” value in the test on IR [1] was “N—N”.

For `CC(C)C[C@@H]1NC(=O)[C@@H](NC(=O)[C@H](CO)NC(=O)[C@H](Cc2ccc(O)cc2)NC(=O)[C@H](Cc2ccccc2)NC(=O)[C@@H](N)CO)CSSC[C@@H](C(=O)N[C@@H](CCCNC(=N)N)C(=O)N[C@@H](CCCCN)C(=O)N[C@@H](CCCCN)C(=O)O)NC(=O)CNC(=O)[C@H](CC(=O)O)NC(=O)[C@H](Cc2c[nH]c3ccccc23)NC(=O)[C@H](CCC(N)=O)NC(=O)CNC(=O)[C@H](CCCNC(=N)N)NC(=O)[C@H](CO)NC(=O)[C@H](CCCCN)NC(=O)[C@H](CCC(=O)O)NC(=O)[C@H](C)NC(=O)[C@@H]2CCCN2C(=O)CNC(=O)[C@H](CC(N)=O)NC(=O)[C@H](C(C)C)NC(=O)[C@H](CC(C)C)NC(=O)[C@H](CO)NC(=O)[C@H](CCC(=O)O)NC1=O` [RP33-IGF with KK], the IC50 with MCF-7 cells (MCF-7) stood at 100 nM; in the test on MiaPaCa cells, 700 nM; in test [2], 9 nM. The Activ. entry in the test with MCF-7 cells (proliferation assays in the presence of IGF-1 using MCF-7 and MiaPaCa cells) was “Antag”.

In the case of AFYDWFAKK [Peptide S167], at IR [3], the Kd (in general, the equilibrium constant for the complex coming apart) was greater than 20000 nM.

In the case of FHENFYDWFVRQVSKK [Peptide H2C], in test [4], the “stimulation of autophosphorylation of IR” value is “stimulate autophosphorylation”. The “Hill, sIR-Fc, b-RP9, FRET” value in test [5] is given as −1.03. In [6], the “Hill, sIR-Fc, b-S175, FRET” value is listed as −0.82. In addition, in [7], the “Hill, sIR, FITC-RP9, FP” value is reported as −0.49. The “effect on the rate of dissociation of b-20E2 from IGF-1R” value on IGF-1R [8] is “dissociation rates of b-20E2 were similar”. In test [9] (FP with FITC-RP9, summary of Table 22), the “potency / affinity at IR, in words” value is listed as “slightly less potent”. Moreover, in test [9] (Hill slope, target sIR-Fc, label FITC-RP9, fluorescence polarization), the “Hill, sIR-Fc, FITC-RP9, FP” value was −0.27. At IGF-1R [10], the “binding to IGF-1R compared with IR, in words” value was “lower binding ratios for IGF-1R over IR”. The FFC entry in test [11] was “+”.

Take “maltose binding protein [MBP, reference compound]”: the “Result (RUs)” value on Insulin receptor was 209 RUs.

Source of the values: patent US20070004634A1 (Novo Nordisk A/S, priority 1998, published 2007).
